Experimental data taken from patent US20210220408A1, “ARYL HYDROCARBON RECEPTOR ANTAGONISTS AND METHODS OF USE” (Magenta Therapeutics Inc., priority 2018, published 2021).

Molecular target: T1, aryl hydrocarbon receptor (AHR) (Homo sapiens, UniProt P35869)
T1 sequence (P35869 11-848): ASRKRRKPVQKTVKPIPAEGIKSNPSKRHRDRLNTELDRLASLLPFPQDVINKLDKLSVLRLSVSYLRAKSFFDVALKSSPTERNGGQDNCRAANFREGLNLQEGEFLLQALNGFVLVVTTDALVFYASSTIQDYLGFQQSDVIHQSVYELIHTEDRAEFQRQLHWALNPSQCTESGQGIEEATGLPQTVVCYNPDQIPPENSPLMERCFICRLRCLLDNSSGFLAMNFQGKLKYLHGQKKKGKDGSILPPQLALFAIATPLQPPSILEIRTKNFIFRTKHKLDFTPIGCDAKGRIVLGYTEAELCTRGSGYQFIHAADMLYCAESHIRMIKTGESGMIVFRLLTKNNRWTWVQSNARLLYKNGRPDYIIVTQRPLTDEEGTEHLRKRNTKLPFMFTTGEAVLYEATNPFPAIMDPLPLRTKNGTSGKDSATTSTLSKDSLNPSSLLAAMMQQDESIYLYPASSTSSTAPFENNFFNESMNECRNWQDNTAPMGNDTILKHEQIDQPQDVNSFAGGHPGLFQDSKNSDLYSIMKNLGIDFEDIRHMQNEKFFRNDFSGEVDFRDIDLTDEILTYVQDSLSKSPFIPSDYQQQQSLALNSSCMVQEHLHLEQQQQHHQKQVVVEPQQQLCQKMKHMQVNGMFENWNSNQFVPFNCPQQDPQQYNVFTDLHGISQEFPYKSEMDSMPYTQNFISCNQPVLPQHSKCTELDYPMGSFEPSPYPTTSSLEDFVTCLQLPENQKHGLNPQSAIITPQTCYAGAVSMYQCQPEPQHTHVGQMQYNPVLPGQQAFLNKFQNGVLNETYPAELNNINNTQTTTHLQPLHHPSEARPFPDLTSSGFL
Assay: DRE-Luciferase reporter high-throughput screen (AHR antagonist, VAF347-activated)
From the text: HepG2 hepatocellular carcinoma cells were transfected with a dioxin-response element (DRE) Firefly luciferase reporter construct. Luciferase transcription was activated with the aryl hydrocarbon receptor (AHR) agonist, VAF347. Addition of an AHR antagonist results in inhibition of the luciferase transcription and a loss of signal in the assay.
HepG2, a hepatocellular carcinoma cell line, was transfected with the dioxin-response element Firefly luciferase reporter construct using the TransIT-transfection system. Prior to transfection, HepG2 cells (Sigma) were cultured at 90% confluency in Eagle's Modified Essential Medium (Sigma)+2 mM Glutamine (Sigma), +1^% Non Essential Amino Acids (Sigma)+10% Fetal Bovine Serum (Hyclone) and harvested and counted (Biorad TC20 cell counter). OptilMEM serum-free media and TransIT (Mirus) were mixed for transfection in 150 mm dishes by adding 240 μL Transit to 3.0 mL OptiMEM, vortexing briefly to mix, and incubating at room temperature for 20 minutes. The DNA mixture was prepared by adding 80 μg plasmid (pGudLuc6.1 plasmid, Garrison et al., (1996) Fundam. Appl. Toxicol., 30, 194-203), inverting to mix, and incubating at room temperature for 30 minutes. 30×10^6 HepG2 cells were seeded in 30 mL media and 3.3 mL of the DNA, OptiMEM, and TransIT mixture was added dropwise to the plate. The plate was mixed by rocking and incubated at 37° C./5% CO2 overnight. The next day, cells were harvested by aspirating media, washing once with sterile phosphate buffered saline (PBS, Gibco), trypsinzing with 0.05% Trypsin (Corning) and harvesting cells with culture medium, and freezing with Cell Freezing Media (Gibco) at 5 50×10^6 cells/vial in 1 mL/vial.
Transiently-transfected frozen HepG2 cells with DRE-Luciferase, were thawed in a 37° C. water bath and resuspended in complete media. 4 μL cells at 15,000 cells per well was transferred into the wells of a 1536-well Alphaplate assay plate (PerkinElmer) using TEMPEST liquid dispenser. The plate was centrifuged at 1000 rpm for 1 minute. 30 nL of the controls (1 μM (S)-2-(6-((2-(1H-indol-3-yl)ethyl)amino)-2-(5-fluoropyridin-3-yl)-9H-purin-9-yl)propan-1-ol or 100% DMSO) were transferred to the assay plate using the Pin Tool on BRAVO. 1 μL of VAF347 (15 nM final concentration) in complete media was added to the wells using TEMPEST. The plate was centrifuged at 1000 rpm for 1 minute and incubated at 37° C./5% CO2 overnight. After incubation, the plate was removed from the incubator and brought to room temperature. 2 μL of room temperature Steady-Glo luciferase detection reagent (Promega) was added to the wells with TEMPEST. The plate was centrifuged at 2000 rpm for 1 minute, sealed with clear plastic seal and kept at room temperature for 15 minutes prior to measuring luminescence on ENVISION.
Approximately 166,000 compounds were screened in 132 1536-well plates in the luciferase reporter gene assay at a final concentration of 12 μM. […] Each compound was tested at 0.1 μM, 1.0 μM, and 10 μM in the DRE luciferase assay and Cell Titer Glo cytotoxicity assay (Promega). […] 512 compounds were selected for 10-point dose-response in the AHR luciferase reporter assay and the Cell Titer Glo cytotoxicity assay.

| IC50 [µM] | SMILES |
| --- | --- |
| 0.5 to 1 | O=C(Nc1cnc2ccc(C(F)(F)F)cn2c1=O)OCc1ccccc1 [compound 151] |
| 0.5 to 1 | O=[N+]([O-])c1cccc(-c2ccc(SCc3ccccc3F)nn2)c1 [48B] |
| 0.5 to 1 | O=C(Nc1ccc(Cl)cn1)C1Cc2ccccc2C1 [26B] |
| > 2 | O=C(NCCn1nc(-c2cccs2)ccc1=O)c1cccs1 [194A] |
| 0.5 to 1 | O=C(Cc1cccc(F)c1)Nc1ccc(-c2nccs2)cc1 [compound 62] |
| > 2 | Cc1nc(NC(=O)c2cc(C(C)(C)C)n[nH]2)sc1SCC#N [34A] |
| > 2 | C#CCn1cnc2c(nnn2-c2ccc(C)c(Cl)c2)c1=O [178A] |
| 1 to 2 | CCCn1cnc(-c2nc(C(=O)Nc3cc(C)ccc3C)c3ccccn23)c1 [46A] |
| > 2 | CCn1cc(C(=O)Nc2ccc(Br)cn2)cn1 [33A] |
| 0.5 to 1 | CCOc1ccc(-n2nc3ccc(NC(=O)COc4ccccc4Cl)cc3n2)cc1 [73B] |
| 1 to 2 | Cc1cc(N(C)C)nc(N2CCN(C(=O)Nc3cccc(F)c3)CC2)n1 [79A] |
| > 2 | Clc1ccc(/C=N/Nc2nc3cc(Cl)ccc3[nH]2)cc1 [83A] |
| 1 to 2 | CS(=O)(=O)Nc1cccc(C(=O)Nc2cccc3cccnc23)c1 [36A] |
| 1 to 2 | Cc1cc(Cl)ccc1OCc1cn2cccnc2n1 [120A] |
| 0.5 to 1 | Cc1noc(C)c1C(=O)Nc1ccc(-c2ccccc2)cc1 [13B] |
| 1 to 2 | CCCN(C(=O)C1CC1)c1nnc(-c2ccc(Cl)cc2)s1 [144A] |
| 0.5 to 1 | Nc1nccc(-c2cc(-c3cccc(C(F)(F)F)c3)no2)n1 [80B] |
| 0.5 to 1 | CCCn1ncc(C(=O)Nc2ccc(N3CCCCC3)c(F)c2)c1C [compound 35] |

Further lines, the compound ahead of its results:

| SMILES | IC50 [µM] |
| --- | --- |
| O=C1CSC(N2CCN(c3ccc(Cl)c(Cl)c3)CC2)=N1 [71A] | > 2 |
| N#Cc1ccc(C(=O)Nc2ccc(Cl)c(C#N)c2)cc1 [7A] | 1 to 2 |
| O=C(Nc1cccnc1N1CCN(c2ncc(C(F)(F)F)cc2Cl)CC1)c1ccc(F)cc1 [81A] | 1 to 2 |
| CC(C)NC(=O)c1ccc2c(-c3nccs3)noc2c1 [65A] | 1 to 2 |
| COc1ccc(Nc2oc(-c3ccccc3C)nc2C#N)cc1 [78B] | 0.5 to 1 |
| N#Cc1ccccc1OCc1cc(-c2cccs2)on1 [127A] | 1 to 2 |
| COc1cccc(-c2ccc(SCc3cccnc3)nn2)c1 [89A] | > 2 |
| COc1ccc([N+](=O)[O-])cc1-c1ccc(/C=N/Nc2ccccc2)o1 [44B] | 1 to 2 |
| Cn1c(Cl)cnc1-c1cc(=O)c2cc(Cl)ccc2o1 [53B] | 1 to 2 |
| COc1ccc(Nc2nn(-c3ccccc3)c3c2C(=O)CCC3)cc1 [177A] | 1 to 2 |
| COc1ccc2c(c1)-c1cccc([N+](=O)[O-])c1CC2C#N (stereo not drawn) [compound 152] | 0.5 to 1 |
| NC(=O)c1cc(-c2ccc(Cl)s2)nc2ccccc12 [156A] | 1 to 2 |
| Cc1ccc(-n2nnc(-c3ccc(Cl)cc3)n2)cc1 [110A] | 1 to 2 |
| COc1ccccc1N(C(=O)c1ccc(O)nc1)c1nc(-c2ccc([N+](=O)[O-])cc2)cs1 [compound 56] | 0.2 to 0.5 |
| Cc1c(C(=O)OC2CCCC2)[nH]c2c1C(=O)CCC2 [179A] | > 2 |
| COC(OC)c1ccnc(-c2ccc(I)c(F)c2)n1 [84A] | 1 to 2 |
| CCc1c(C(=O)Nc2c(C)nn(-c3ccccc3)c2C)cnn1-c1ccc([N+](=O)[O-])cc1 [30A] | 1 to 2 |
| Cc1cc2cc(Nc3nccc(C(F)(F)F)n3)ccc2[nH]1 [compound 84] | 0.2 to 0.5 |
| O=[N+]([O-])c1ccc(C2COC(c3ccc(Cl)cc3)O2)cc1 (stereo not drawn) [102B] | 1 to 2 |
| CN(C)c1ccnc2sc(C(=O)c3ccccc3)c(N)c12 [106B] | < 0.2 |
| CC(=O)c1cc(NC(=O)c2ccc(Cl)cc2)c(=O)n(Cc2ccc(Cl)cc2)c1C [29A] | 1 to 2 |
| CCOC(=O)c1c(C)[nH]c(-c2cn3ccccc3n2)c1C [compound 102] | 0.2 to 0.5 |
| N#Cc1c(NC(=O)Nc2ccc(Cl)c(Cl)c2)sc2c1C1CCN2CC1 [192A] | 1 to 2 |
| COc1ccc(NC(=O)c2noc3c2CC(C)CC3)cc1 (stereo not drawn) [30B] | 1 to 2 |
